Assay results taken from US20260109690A1, “HDAC6 INHIBITORS AND METHOD OF THEIR USE” (Baerenkraft Therapeutics, LLC., priority 2024, published 2026).

Experiments:
[1] = system: acetyl-α-tubulin in SH-SY5Y neuroblastoma cells; test: ICC dose response of acetylated alpha-tubulin in SH-SY5Y neuroblastoma cells; format: cell-based; settings: Homo sapiens, 24 h, read-out: IC50 (acetyl-α-tubulin average fluorescence intensity)
Protocol: Cell Seeding: Seeded at 2,000 cells/well in 384-well plates 24-hours prior to compound treatment
Compound Treatment: 24-hour
HDAC6 inhibitor compounds tested (1 control and 6 experimental)
9-point dose-response curves for all compounds, starting at 30 μM with 3-fold serial dilutions
4 technical replicate wells per condition tested
Cells were seeded in 90 μL media. 10 μL of 10× compound solutions added to 90 μL media for 24-hours
Fixation: 4% PFA for 15 minutes (after removing all media and washing with DPBS+0.1% Tween-20)
Permeabilization: 0.1% Triton X-100 for 20 minutes
Primary antibody: acetyl-α-tubulin (Lys40/D20G3; Cell Signaling Technologies, #5335S) 1:1000 dilution in DPBS+5% goat serum+0.1% Tween-20, 1 hour at room temp on orbital shaker
Secondary antibody: Goat anti-Rabbit IgG (H+L) Highly Cross-Adsorbed Secondary Antibody, Alexa Fluor™ Plus 488, Catalog #A32731, 1:1000 dilution+Hoechst 33342, 1:10,000 dilution in DPBS+5% goat serum+0.1% Tween-20, 1 hour at room temp on orbital shaker
High-content imaging system: Image Xpress Micro Confocal from Molecular Devices […]
Integrated fluorescence intensity of acetyl-α-tubulin was calculated using an automated image-analysis algorithm in Meta Xpress software
Average intensity per cell was calculated by dividing the integrated fluorescence intensity by the number of nuclei. […]

HDAC6 = molecular target: T1, HDAC6 (Homo sapiens, UniProt Q9UBN7); test: Biochemical HDAC6 inhibitory activity assay; settings: read-out: HDAC6 IC50
T1 sequence (Q9UBN7 1-1215): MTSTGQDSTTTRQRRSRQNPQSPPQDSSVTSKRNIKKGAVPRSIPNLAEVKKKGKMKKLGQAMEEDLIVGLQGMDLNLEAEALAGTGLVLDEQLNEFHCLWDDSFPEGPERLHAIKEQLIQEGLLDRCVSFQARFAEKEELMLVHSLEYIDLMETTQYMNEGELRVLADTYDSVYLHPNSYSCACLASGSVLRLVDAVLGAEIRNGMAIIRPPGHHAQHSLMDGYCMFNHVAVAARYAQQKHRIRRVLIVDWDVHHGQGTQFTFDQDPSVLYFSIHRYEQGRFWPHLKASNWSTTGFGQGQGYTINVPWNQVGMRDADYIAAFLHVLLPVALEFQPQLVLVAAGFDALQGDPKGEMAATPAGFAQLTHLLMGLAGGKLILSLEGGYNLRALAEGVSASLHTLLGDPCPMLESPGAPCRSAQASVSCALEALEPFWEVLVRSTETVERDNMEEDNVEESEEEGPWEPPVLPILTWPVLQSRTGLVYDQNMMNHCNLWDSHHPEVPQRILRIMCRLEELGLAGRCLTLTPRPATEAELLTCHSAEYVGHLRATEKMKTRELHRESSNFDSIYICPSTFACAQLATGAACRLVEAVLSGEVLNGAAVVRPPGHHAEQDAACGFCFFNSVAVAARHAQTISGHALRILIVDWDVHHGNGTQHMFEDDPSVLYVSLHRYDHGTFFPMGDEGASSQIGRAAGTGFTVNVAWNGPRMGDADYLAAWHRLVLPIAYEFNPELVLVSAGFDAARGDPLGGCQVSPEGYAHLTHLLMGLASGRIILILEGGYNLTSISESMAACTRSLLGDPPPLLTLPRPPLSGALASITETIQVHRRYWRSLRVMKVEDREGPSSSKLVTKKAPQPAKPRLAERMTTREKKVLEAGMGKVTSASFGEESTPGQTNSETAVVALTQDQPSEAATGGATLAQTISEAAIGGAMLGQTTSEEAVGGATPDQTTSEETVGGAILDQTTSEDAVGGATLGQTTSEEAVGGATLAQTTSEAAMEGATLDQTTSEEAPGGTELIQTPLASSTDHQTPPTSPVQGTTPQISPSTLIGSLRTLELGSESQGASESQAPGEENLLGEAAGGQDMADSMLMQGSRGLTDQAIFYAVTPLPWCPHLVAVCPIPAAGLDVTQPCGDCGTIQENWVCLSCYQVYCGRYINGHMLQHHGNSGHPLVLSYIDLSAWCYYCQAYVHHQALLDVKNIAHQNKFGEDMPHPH

HDAC1 = HDAC1 (Homo sapiens, UniProt Q13547); test: HDAC selectivity panel: HDAC1; format: biochemical
Sequence of HDAC1 (Q13547 whole entry, species assumed): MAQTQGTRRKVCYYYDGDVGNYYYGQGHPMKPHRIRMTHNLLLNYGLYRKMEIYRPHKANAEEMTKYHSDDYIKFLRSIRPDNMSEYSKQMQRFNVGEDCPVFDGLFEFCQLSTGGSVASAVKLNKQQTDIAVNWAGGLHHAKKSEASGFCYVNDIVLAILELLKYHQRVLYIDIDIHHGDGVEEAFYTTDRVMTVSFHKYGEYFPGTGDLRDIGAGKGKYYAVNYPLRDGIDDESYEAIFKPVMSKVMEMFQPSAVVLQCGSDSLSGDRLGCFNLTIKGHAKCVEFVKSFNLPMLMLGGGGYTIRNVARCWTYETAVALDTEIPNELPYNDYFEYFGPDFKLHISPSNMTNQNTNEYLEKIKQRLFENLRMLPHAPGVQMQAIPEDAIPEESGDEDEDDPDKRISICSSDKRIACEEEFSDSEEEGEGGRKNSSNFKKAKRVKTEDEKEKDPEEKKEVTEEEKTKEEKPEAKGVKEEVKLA

HDAC3 = HDAC3 (Homo sapiens, UniProt O15379); test: HDAC selectivity panel: HDAC3; format: biochemical
Sequence of HDAC3 (O15379 whole entry, species assumed): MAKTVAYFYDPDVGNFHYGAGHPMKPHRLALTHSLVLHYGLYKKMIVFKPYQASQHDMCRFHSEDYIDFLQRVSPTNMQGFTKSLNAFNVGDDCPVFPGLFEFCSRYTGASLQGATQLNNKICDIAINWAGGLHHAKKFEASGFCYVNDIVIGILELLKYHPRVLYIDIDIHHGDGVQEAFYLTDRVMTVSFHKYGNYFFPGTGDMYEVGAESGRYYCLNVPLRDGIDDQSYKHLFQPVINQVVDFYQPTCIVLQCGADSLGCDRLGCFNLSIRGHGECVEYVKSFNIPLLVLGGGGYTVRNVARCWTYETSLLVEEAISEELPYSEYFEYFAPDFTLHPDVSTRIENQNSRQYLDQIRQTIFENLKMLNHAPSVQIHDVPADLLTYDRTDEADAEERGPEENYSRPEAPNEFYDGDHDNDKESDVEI
Sequence of HDAC3 (Q9Y618 395-489 partner limits assumed, species assumed): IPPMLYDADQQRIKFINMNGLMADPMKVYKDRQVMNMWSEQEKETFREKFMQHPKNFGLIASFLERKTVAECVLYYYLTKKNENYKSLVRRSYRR

HDAC8 = molecular target: T2, HDAC8 (Homo sapiens, UniProt Q9BY41); test: HDAC selectivity panel: HDAC8; format: biochemical
T2 sequence (Q9BY41 1-377): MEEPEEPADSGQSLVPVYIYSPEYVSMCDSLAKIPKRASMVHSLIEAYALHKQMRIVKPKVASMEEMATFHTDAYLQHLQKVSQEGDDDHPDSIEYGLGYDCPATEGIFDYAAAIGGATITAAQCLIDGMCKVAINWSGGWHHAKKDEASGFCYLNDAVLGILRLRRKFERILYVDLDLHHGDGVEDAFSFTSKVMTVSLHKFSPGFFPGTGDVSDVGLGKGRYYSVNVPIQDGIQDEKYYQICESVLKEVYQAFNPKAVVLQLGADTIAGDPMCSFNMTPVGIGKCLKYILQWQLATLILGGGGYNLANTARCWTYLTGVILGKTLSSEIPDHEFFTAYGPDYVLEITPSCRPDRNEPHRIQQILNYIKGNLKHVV

HDAC10 = molecular target: T3, HDAC10 (Homo sapiens, UniProt Q969S8); test: HDAC selectivity panel: HDAC10; format: biochemical
T3 sequence (Q969S8 1-669): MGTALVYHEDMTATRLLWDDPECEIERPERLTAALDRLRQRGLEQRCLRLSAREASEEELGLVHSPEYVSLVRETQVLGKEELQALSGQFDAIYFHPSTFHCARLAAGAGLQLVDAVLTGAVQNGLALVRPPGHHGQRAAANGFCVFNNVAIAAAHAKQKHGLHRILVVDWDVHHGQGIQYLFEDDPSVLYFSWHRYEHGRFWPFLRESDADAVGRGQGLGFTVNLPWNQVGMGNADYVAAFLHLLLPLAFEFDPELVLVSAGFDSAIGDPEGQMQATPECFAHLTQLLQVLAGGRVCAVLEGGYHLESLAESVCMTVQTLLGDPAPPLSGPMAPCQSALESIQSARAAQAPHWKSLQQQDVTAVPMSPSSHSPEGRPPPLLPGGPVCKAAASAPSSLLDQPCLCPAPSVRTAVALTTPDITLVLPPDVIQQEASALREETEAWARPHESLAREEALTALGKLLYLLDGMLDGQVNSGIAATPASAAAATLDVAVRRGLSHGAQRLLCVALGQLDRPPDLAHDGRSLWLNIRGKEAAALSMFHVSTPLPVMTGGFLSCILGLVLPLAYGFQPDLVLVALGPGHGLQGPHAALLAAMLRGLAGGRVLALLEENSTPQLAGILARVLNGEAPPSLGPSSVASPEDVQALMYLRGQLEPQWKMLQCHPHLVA

HDAC11 = molecular target: T4, HDAC11 (Homo sapiens, UniProt Q96DB2); test: HDAC selectivity panel: HDAC11; format: biochemical
T4 sequence (Q96DB2 1-347): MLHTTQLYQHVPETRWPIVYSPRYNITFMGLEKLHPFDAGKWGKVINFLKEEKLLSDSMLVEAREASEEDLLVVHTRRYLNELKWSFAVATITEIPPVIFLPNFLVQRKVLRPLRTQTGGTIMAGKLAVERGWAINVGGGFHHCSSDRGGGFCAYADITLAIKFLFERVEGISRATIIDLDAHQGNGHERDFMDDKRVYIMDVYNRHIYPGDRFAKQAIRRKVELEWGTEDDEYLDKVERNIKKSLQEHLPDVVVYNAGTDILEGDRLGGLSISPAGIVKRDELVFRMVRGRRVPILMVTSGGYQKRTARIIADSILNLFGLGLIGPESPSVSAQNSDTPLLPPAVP

[2] = system: acetyl-α-tubulin in SH-SY5Y neuroblastoma cells; test: Western blot of acetylated alpha-tubulin in SH-SY5Y neuroblastoma cells; format: cell-based; settings: 1 μM and 10 μM, 24 hours
Protocol: SH-SY5Y neuroblastoma cells were seeded at 1,000,000 cells/well of three 6-well plates and incubated for 24 hours. Cells were treated with 2 control and experimental HDAC6 inhibitors at 1 μM and 10 μM for 24-hours. Following treatment, cells were lysed, and proteins extracted for western blot. Proteins were separated by gel electrophoresis and transferred to nitrocellulose membranes. Membranes were blocked and probed with primary Abs overnight.
acetyl-α-tubulin (Lys40)(D20G3); Cell Signaling Technologies, #5335S
GAPDH; Millipore Sigma, #MAB374
Membranes were probed with secondary Abs for 1 hour and then the blots were imaged using the iBright 1500 (ThermoFisher)

| IC50 (HDAC6) | Compound | acetylation of α-tubulin (Western blot) [2] | further results |
| --- | --- | --- | --- |
| – | O=C(CCCCCCNC(=O)c1cnc(N(c2ccccc2)c2ccccc2)nc1)NO [ACY-1215, ricolinostat, reference compound] | – | IC50 [1]: 1780 nM |
| < 1000 nM | CC1CN(C(=O)c2ccc(Nc3nccc(-c4ccc(C(=O)NO)cc4)n3)cc2F)CCO1 (stereo not drawn) [Compound I-5, 4-(2-((3-fluoro-4-(2-methylmorpholine-4-carbonyl)phenyl)amino)pyrimidin-4-yl)-N-hydroxybenzamide] | – | IC50 (HDAC1): 1640 nM; IC50 (HDAC3): 1360 nM; IC50 (HDAC8): 162 nM; IC50 (HDAC10): 73.7 nM; IC50 (HDAC11): 782 nM |
| < 1000 nM | CN1CCN(Cc2ccc(Nc3nccc(-c4ccc(C(=O)NO)cc4)n3)cc2F)CC1 [Compound I-7, 4-(2-((3-fluoro-4-((4-methylpiperazin-1-yl)methyl)phenyl)amino)pyrimidin-4-yl)-N-hydroxybenzamide] | induce acetylation of α-tubulin in SH-SY5Y neuroblastoma cells in a dose-dependent manner | – |
| < 1000 nM | O=C(NO)c1ccc(-c2ccnc(Nc3ccc(CN4CCN(C5COC5)CC4)c(F)c3)n2)cc1 [Compound I-9, 4-(2-((3-fluoro-4-((4-(oxetan-3-yl)piperazin-1-yl)methyl)phenyl)amino)pyrimidin-4-yl)-N-hydroxybenzamide] | induce acetylation of α-tubulin in SH-SY5Y neuroblastoma cells in a dose-dependent manner | – |
| < 1000 nM | O=C(NO)c1ccc(-c2ccnc(N3CCC4(CC3)COC4)n2)cc1 [Compound I-25, 4-(2-(2-oxa-7-azaspiro[3.5]nonan-7-yl)pyrimidin-4-yl)-N-hydroxybenzamide] | induce acetylation of α-tubulin in SH-SY5Y neuroblastoma cells in a dose-dependent manner | – |
| < 1000 nM | O=C1NCC2(CCN(c3nccc(-c4ccc(C(=O)NO)cc4)n3)CC2)O1 [Compound I-26, N-hydroxy-4-(2-(2-oxo-1-oxa-3,8-diazaspiro[4.5]decan-8-yl)pyrimidin-4-yl)benzamide] | induce acetylation of α-tubulin in SH-SY5Y neuroblastoma cells in a dose-dependent manner | – |
| < 1000 nM | O=C(NO)c1ccc(-c2ccnc(N3CCC(F)(F)CC3)n2)cc1 [Compound I-27, 4-(2-(4,4-difluoropiperidin-1-yl)pyrimidin-4-yl)-N-hydroxybenzamide] | induce acetylation of α-tubulin in SH-SY5Y neuroblastoma cells in a dose-dependent manner | – |
| – | Cn1cc(CNCC2CCN(c3ncc(C(=O)NO)cn3)CC2)c2ccccc21 [Quisinostat, reference compound] | – | IC50 (HDAC10): 8.37 nM |
